From paper PMC9516332 (Frontiers in Oncology, 2022) come the findings set out here.

What all share (experiment): Kinase panel profiling at 1 µmol/L (MSA or IMAP), percentage inhibition
Type in all cases: biochemical

In experiment [1] the target is T1, panel of 255 wild-type kinases (Homo sapiens, UniProt O15111).
T1 sequence (O15111 1-745): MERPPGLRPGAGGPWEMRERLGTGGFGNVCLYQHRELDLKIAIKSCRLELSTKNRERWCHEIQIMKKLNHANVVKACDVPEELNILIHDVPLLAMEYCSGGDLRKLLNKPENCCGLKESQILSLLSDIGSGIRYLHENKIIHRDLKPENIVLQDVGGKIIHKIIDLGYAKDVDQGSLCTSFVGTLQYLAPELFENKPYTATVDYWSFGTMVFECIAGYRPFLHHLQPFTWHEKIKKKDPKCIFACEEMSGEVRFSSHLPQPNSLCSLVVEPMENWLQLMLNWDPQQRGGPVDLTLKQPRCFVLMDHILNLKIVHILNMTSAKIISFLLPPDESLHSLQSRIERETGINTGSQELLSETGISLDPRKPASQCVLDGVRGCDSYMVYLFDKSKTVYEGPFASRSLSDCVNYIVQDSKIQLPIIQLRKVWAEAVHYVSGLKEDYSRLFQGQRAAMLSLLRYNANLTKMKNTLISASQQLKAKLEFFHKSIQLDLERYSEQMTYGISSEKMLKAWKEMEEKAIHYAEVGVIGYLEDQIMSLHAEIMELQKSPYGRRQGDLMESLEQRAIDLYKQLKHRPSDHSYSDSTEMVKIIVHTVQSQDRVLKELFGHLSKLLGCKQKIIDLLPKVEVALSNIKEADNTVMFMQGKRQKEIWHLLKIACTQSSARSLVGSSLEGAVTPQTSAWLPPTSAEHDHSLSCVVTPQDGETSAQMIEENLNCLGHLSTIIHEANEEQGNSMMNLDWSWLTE
Conditions: kinase IKKα; 1 µmol/L single concentration; read-out: %-inhibition at 1 µmol/L, IKKα.

Experiment [2] deals with panel of 255 wild-type kinases (Homo sapiens, UniProt O95819). The following applies: kinase HGK; 1 µmol/L single concentration; read-out: %-inhibition at 1 µmol/L, HGK.
Experiment [3] addresses panel of 255 wild-type kinases (Homo sapiens, UniProt P10721). Conditions: kinase KIT; 1 µmol/L single concentration; read-out: %-inhibition at 1 µmol/L, KIT.
Experiment [4] concerns the target panel of 255 wild-type kinases (Homo sapiens, UniProt P17252). Conditions: kinase PKCα; 1 µmol/L single concentration; read-out: %-inhibition at 1 µmol/L, PKCα.
Experiment [5] deals with panel of 255 wild-type kinases (Homo sapiens, UniProt P49759). The following applies: kinase CLK1; 1 µmol/L single concentration; read-out: %-inhibition at 1 µmol/L, CLK1.
In experiment [6] the target is panel of 255 wild-type kinases (Homo sapiens, UniProt P51812). Conditions: kinase RSK2; 1 µmol/L single concentration; read-out: %-inhibition at 1 µmol/L, RSK2.
The target in experiment [7] is panel of 255 wild-type kinases (Homo sapiens, UniProt Q00526). The following applies: CDK3/CycE1 kinase assay; 1 µmol/L single concentration; read-out: %-inhibition CDK3/CycE1.
The target of experiment [8] is panel of 255 wild-type kinases (Homo sapiens, UniProt Q05397). The following applies: read-out: %-inhibition at 1 µmol/L, FAK.
The target of experiment [9] is panel of 255 wild-type kinases (Homo sapiens, UniProt Q9H4B4). The following applies: kinase PLK3; 1 µmol/L single concentration; read-out: %-inhibition at 1 µmol/L, PLK3.
The target in experiment [10] is panel of 255 wild-type kinases (Homo sapiens, UniProt Q9NQU5). Conditions: PAK6; 1 µmol/L single concentration; read-out: %-inhibition, PAK6.
Experiment [11] addresses T2, panel of 255 wild-type kinases (Homo sapiens, UniProt Q9UHD2).
T2 sequence (Q9UHD2 1-729): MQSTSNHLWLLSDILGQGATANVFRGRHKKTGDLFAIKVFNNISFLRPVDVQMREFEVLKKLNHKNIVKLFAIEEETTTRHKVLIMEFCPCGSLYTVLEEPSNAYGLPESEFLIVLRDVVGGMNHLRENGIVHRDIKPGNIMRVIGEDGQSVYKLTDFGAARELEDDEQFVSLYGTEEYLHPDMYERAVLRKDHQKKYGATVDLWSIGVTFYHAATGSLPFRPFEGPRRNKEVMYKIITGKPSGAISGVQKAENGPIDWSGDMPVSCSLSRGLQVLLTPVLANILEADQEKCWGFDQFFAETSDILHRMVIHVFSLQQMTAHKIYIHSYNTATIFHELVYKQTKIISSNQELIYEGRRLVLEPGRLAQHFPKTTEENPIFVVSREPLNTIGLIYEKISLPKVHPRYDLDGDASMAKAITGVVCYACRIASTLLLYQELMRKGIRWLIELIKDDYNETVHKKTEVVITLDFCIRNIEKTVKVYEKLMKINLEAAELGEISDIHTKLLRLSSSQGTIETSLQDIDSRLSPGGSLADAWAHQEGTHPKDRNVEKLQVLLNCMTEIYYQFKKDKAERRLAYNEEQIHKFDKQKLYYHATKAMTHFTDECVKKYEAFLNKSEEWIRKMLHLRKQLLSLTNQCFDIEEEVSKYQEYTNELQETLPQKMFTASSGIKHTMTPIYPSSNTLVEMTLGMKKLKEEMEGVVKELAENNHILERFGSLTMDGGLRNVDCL
The following applies: kinase TBK1; 1 µmol/L single concentration; read-out: %-inhibition at 1 µmol/L, TBK1.

Experiment [12] addresses T3, panel of 255 wild-type kinases (Homo sapiens, UniProt Q9UQB9).
T3 sequence (Q9UQB9 1-309): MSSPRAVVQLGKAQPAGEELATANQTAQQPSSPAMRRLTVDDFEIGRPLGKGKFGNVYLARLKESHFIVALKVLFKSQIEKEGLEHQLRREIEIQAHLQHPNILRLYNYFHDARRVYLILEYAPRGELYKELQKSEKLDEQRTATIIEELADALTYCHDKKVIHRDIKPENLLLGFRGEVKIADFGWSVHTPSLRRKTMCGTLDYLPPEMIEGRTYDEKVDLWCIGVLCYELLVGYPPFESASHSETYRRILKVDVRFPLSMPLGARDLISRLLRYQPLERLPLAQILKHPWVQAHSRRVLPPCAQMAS
The following applies: AurC kinase assay; 1 µmol/L single concentration; read-out: %-inhibition AurC.

Where [13] appears, read: kinase FAK, 1 µmol/L single concentration.

Read-outs that look alike come from different tables or passages of the source.

Consider `Cc1nc(NC(=O)N2CCC[C@H]2C(N)=O)sc1-c1ccnc(C(C)(C)C(F)(F)F)c1` [alpelisib], for which the inhibition at 1 µM is 6% in experiment [1]; 2.66% in [2]; 5% in experiment [3]; 1.21% in experiment [4]; 59% in experiment [5]; -1.78% in [6]. The inhibition at 1 µM was -4% in experiment [7]; 3.69% in experiment [8] (setting [13]); 1.89% in experiment [9]; 10% in [10]; -2.72% in [11]; 4.51% in [12].
Turning to `Cn1cc(-c2cc3c(N4CCN(c5ncc([C@@](C)(N)c6ccc(F)cc6)cn5)CC4)ncnn3c2)cn1` [avapritinib], the inhibition at 1 µM in experiment [1] was 2.41%; in experiment [2], 37%; in [3] it was 100%; in experiment [4], 5%; in experiment [6] it was 2.57%; in experiment [7] it was -2.7%. Also, the inhibition at 1 µM is -2.5% in [8] (setting [13]); 5.69% in experiment [9]; 9% in [10]; -1.13% in experiment [11]; 14% in experiment [12].
Regarding `Cn1cnc2c(F)c(Nc3ccc(Br)cc3F)c(C(=O)NOCCO)cc21` [binimetinib], the inhibition at 1 µM in experiment [1] is 9%; in [2], 3.18%; in experiment [3] it was -0.242%; in experiment [4] it was -0.116%; in [5], -1.7%; in experiment [6], 0.103%. For the same compound, the inhibition at 1 µM in experiment [7] was -4.57%; in [8] (setting [13]), -1.33%; in experiment [9] it was -0.0416%; in [10], 4.75%; in experiment [11] it was 0.416%; in [12], -6.37%.
As for `CN1CCN(c2ccc(C(=O)Nc3n[nH]c4ccc(Cc5cc(F)cc(F)c5)cc34)c(NC3CCOCC3)c2)CC1` [entrectinib], the inhibition at 1 µM in [1] worked out at 8%; in experiment [2], 7%; in experiment [3] it was 21%; in [4], 20%; in [5], 60%; in [7], 5.63%. Moreover, the inhibition at 1 µM in experiment [9] turned out to be 4.71%; in experiment [10], 15%; in experiment [11], 8%; in [12], 67%.
`CCc1nc(C(N)=O)c(Nc2ccc(N3CCC(N4CCN(C)CC4)CC3)c(OC)c2)nc1NC1CCOCC1` [gilteritinib]: the inhibition at 1 µM worked out at 2.16% in [1]; 96% in [2]; 71% in [3]; 96% in [5]; 48% in [6]; 7% in experiment [7]. The inhibition at 1 µM in experiment [8] is 81%; in experiment [9], 2.59%; in [10], 22%; in experiment [11], 24%; in experiment [12], 41%.
As for `CCN1CCN(c2ccc(Nc3cc(N(C)C(=O)Nc4c(Cl)c(OC)cc(OC)c4Cl)ncn3)cc2)CC1` [infigratinib], the inhibition at 1 µM was 2.62% in experiment [1]; 15% in experiment [2]; -4% in experiment [4]; 10% in [5]; -7% in experiment [6]; -10% in [7]. The inhibition at 1 µM in experiment [8] (setting [13]) was -4.48%; in experiment [9], -0.24%; in experiment [10], 10%; in experiment [11], -4%; in experiment [12], -7.58%.
Consider `C[C@H]1Oc2cc(cnc2N)-c2c(nn(C)c2C#N)CN(C)C(=O)c2ccc(F)cc21` [lorlatinib], for which the inhibition at 1 µM in experiment [1] was 12%; in experiment [2], 1%; in [3], 4.22%; in experiment [4], 12%; in experiment [5] it was -2.47%; in [6], -0.881%. The inhibition at 1 µM in experiment [7] was 3%; in experiment [9] it was 2.15%; in [10], 14%; in experiment [11] it was -1.23%; in experiment [12], 19%.
Take `CCn1c(=O)c(-c2cc(NC(=O)Nc3ccccc3)c(F)cc2Br)cc2cnc(NC)cc21` [ripretinib]: the inhibition at 1 µM in experiment [1] is 1.08%; in experiment [2], 13%; in experiment [4] it was -1.85%; in experiment [5], 1%; in experiment [6] it was 3.31%; in [7], -4.34%. The inhibition at 1 µM came to 0.833% in experiment [8] (setting [13]); 4% in [9]; 1.15% in experiment [10]; 0.403% in [11]; 0.523% in [12].
